Data reported in patent publication US6130248A, “Tricarboxylic acid-containing oxyalkyl esters and uses thereof” (Bar-ILAn University, priority 1996, dated 2000).

Key:
HT-29 cells = experiment: SRB cell proliferation assay; type: cell-based; conditions: Homo sapiens; HT-29, SRB
Description: (§1) The inhibition of cell proliferation was measured in the indicated cancer cell lines using the sulforhoamine B (SRB) assay as described by Monks et al., J. Natl. Can. Inst. […] The SRB assay is used to screen for anti-cancer drugs.

CFPAC cells = experiment: SRB cell proliferation assay; type: cell-based
Description: as §1

HL-60 cells = experiment: SRB cell proliferation assay; type: cell-based; conditions: Homo sapiens; HL-60, SRB
Description: as §1

MCF7 cells = experiment: SRB cell proliferation assay; type: cell-based; conditions: Homo sapiens
Description: as §1

neoplastic cells = conditions: in vitro; cited from earlier work
[1] = tested on: c-myc in HL-60 promyelocytic leukemia; conditions: cited from earlier work
cancer = cancer patients; cited from earlier work
[2] = tested on: Au565 breast carcinoma cells; experiment: Differentiation by lipid staining; type: cell-based, human; conditions: 10 μM
Excerpt: Lipid staining and/or immunochemical staining of casein can be used as a marker for cellular differentiation of breast cancer cells (Bacus et al., Md. Carcin. 3:350-362, 1990). Casein detection can be done by histochemical staining of breast cancer cells using a human antibody to human casein as described by Cheung et al., J. Clin. Invest. 75:1722-1728,which is incorporated by reference in its entirety.
In the case of the human breast carcinoma cell line Au565, 100%. Of the cells treated with 10 μM GOMB were positive for lipid staining whereas less than 1% of cells treated with the same concentration of AB were positive for lipid staining.

K562 cells (HbF) [3] = experiment: Hb-containing K562 cells by benzidine staining; type: cell-based, human; conditions: 0.05 mM, 5 days
Description: Hb Measurement: HB was measured by benzidine staining of K562 cells after 5 days exposure to GOMB or AB according to the procedure of Fibach et al. (1989) [full cite]. Quantitative measurement of HbF in K562 culture or human erythroid cultures was determined by ion-exchange high pressure liquid chromatography (HPLC) as described by Fibach et al., Blood 81:1630-1635, 1993.
(§2) K562 cells: K562 is an erthroblast cell line that develops some properties of erythroid, megakaryocyte or monocyte cells, depending on the specific stimulus, when induced by different chemicals. K562 cells were grown in RPMI with 10% FCS, supplemented with 2 mM glutamine. Cells were incubated at 37° C. in a humidified, 5% CO2 incubator.

NBAS-5 (Neuroblastoma) = experiment: Clonogenicity of established tumor cell lines (soft agar); type: cell-based, human; conditions: Homo sapiens; NBAS-5 clonogenicity
Description: (§3) Inhibition of tumor growth was tested using cell lines as follows: […]

[4] = tested on: MCF7-40F (Breast Carcinoma); experiment: as above; type: cell-based, human; conditions: Homo sapiens; MCF7-40F clonogenicity
Description: as §3

[5] = tested on: LNCaP (Prostate Carcinoma); experiment: as above; type: cell-based, human; conditions: Homo sapiens; LNCaP clonogenicity
Description: as §3

SK-N-MC (Neuroblastoma) = experiment: as above; type: cell-based, human; conditions: Homo sapiens; SK-N-MC clonogenicity
Description: as §3

SMS-KAN (Neuroblastoma) = experiment: as above; type: cell-based, human; conditions: Homo sapiens; SMS-KAN clonogenicity
Description: as §3

K562 (Erytholeukemia) = experiment: as above; type: cell-based, human; conditions: Homo sapiens; K562 clonogenicity
Description: as §3

SK-N-SH (Neuroblastoma) = experiment: as above; type: cell-based, human; conditions: Homo sapiens; SK-N-SH clonogenicity
Description: as §3

NBL-W-N (Neuroblastoma) = experiment: as above; type: cell-based, human; conditions: Homo sapiens; NBL-W-N clonogenicity
Description: as §3

[6] = tested on: MCF7-WT (Breast Carcinoma); experiment: as above; type: cell-based, human; conditions: Homo sapiens; MCF7-WT clonogenicity
Description: as §3

LA1-5S (Neuroblastoma) = experiment: as above; type: cell-based, human; conditions: Homo sapiens; LA1-5S clonogenicity
Description: as §3

IMR-32 (Neuroblastoma) = experiment: as above; type: cell-based, human; conditions: Homo sapiens; IMR-32 clonogenicity
Description: as §3

PC3 (Prostate Carcinoma) = experiment: as above; type: cell-based, human; conditions: Homo sapiens; PC3 clonogenicity
Description: as §3

[7] = tested on: P3HR-1 EBV-positive lymphoma cells; experiment: [3H]-thymidine incorporation in EBV-positive lymphoma cells; type: cell-based, human; conditions: combination with GC, 72 hours
Description: The effect of GOMB to AB was compared on EBV virus-associated tumors. EBV-positive cells from P3HR-1, a human lymphoma cell line, were incubated in growth medium with the specified concentration of GOMB, AB, ganciclovir (GC), or combination of these, for 72 hours, seeded in 96-well plates and pulsed with 1 μCi [^3 H]-thymidine/well during the last 16 hours of exposure to the compounds. Cells were harvested with a cell harvester, using glass microfiber filters. The incorporation of [^3 H]-thymidine was determined by retention of the acid insoluble fraction on filters and is expressed as CPM.

MCF-7 cells (WAF) = experiment: Apoptosis in breast cancer cells, staining with WAF antibody / Western blot; type: cell-based, human; conditions: 100 μM
Description: Induction of apoptosis by COMB and AB in MCF-7 cells was evaluated by staining cells with the WAF antibody and by Western blot analysis as described by Bacus et al., 1996, Oncogene 12:2535-2547.

[8] = tested on: 53 primary tumor cell lines; experiment: Inhibition of clonogenicity of primary tumor cells; type: cell-based, human; conditions: Homo sapiens
Excerpt: The tested tumor cells were from 11 non-small cell lung carcinomas, 10 breast carcinomas, 10 gastric carcinomas, 10 ovarian carcinomas, and 10 CNS tumors.

[9] = tested on: established tumor cell lines; experiment: Clonogenicity of established tumor cell lines, all lines together; type: cell-based, human; conditions: in words
Description: as §3

K562 cells (HbF) [10] = experiment: HbF synthesis in K562 cells (ion-exchange HPLC); type: cell-based, human
Description: as §2

[11] = tested on: β-thalassemia and sickle-cell anemia; conditions: β-globin disorders; cited from earlier work

Q: Which results are given for CCCC(=O)OCOC(=O)C(C)(C)C [AN-9, pivaloyloxymethyl butyrate]?
A: IC50 (HT-29 cells): 144 µM; IC90 (HT-29 cells): 231 µM; IC50 (CFPAC cells): 55.9 µM; IC90 (CFPAC cells): 89.8 µM; IC50 (HL-60 cells): 39 µM; IC90 (HL-60 cells): 59.9 µM; IC50 (MCF7 cells): 180 µM; IC90 (MCF7 cells): 238 µM

Q: With CCCC(=O)O [BA, Butyric acid] as the compound, how does the “differentiating and antiproliferative activity” value (neoplastic cells) read?
A: The value was “potent differentiating and antiproliferative agent in a wide spectra of neoplastic cells”.

Q: What about the expression of c-myc [1] of the same compound?
A: Its expression of c-myc is “decrease in the expression”.

Q: What about the clinical antitumor efficacy (cancer) of the same compound?
A: The clinical antitumor efficacy was “minimal or transient efficacy”.

Q: With CCCC(=O)O [AB, arginine butyrate, reference compound] as the compound, how does the “cells positive for lipid staining” value [2] read?
A: Its value is “less than 1%”.

Q: What about the “Percentage K562 Cells Containing HbF” value (K562 cells (HbF) [3]) of the same compound?
A: Its value is 3 ± 2%.

Q: What about the IC50 (NBAS-5 (Neuroblastoma)) of the same compound?
A: The IC50 was 883 µM.

Q: And the IC90 (NBAS-5 (Neuroblastoma))?
A: Its IC90 is 13000 µM.

Q: What about the IC50 [4] of the same compound?
A: The IC50 was 817 µM.

Q: What about the IC90 [4] of the same compound?
A: Its IC90 is 3180 µM.

Q: And the IC50 [5]?
A: The IC50 was 780 µM.

Q: And the IC90 [5]?
A: The IC90 was 6700 µM.

Q: What about the IC50 (SK-N-MC (Neuroblastoma)) of the same compound?
A: The IC50 was 215 µM.

Q: And the IC90 (SK-N-MC (Neuroblastoma))?
A: The IC90 was 1310 µM.

Q: What about the IC50 (SMS-KAN (Neuroblastoma)) of the same compound?
A: The IC50 was 1140 µM.

Q: And the IC90 (SMS-KAN (Neuroblastoma))?
A: Its IC90 is 2080 µM.

Q: And the IC50 (K562 (Erytholeukemia))?
A: Its IC50 is 772 µM.

Q: What about the IC50 (SK-N-SH (Neuroblastoma)) of the same compound?
A: Its IC50 is 998 µM.

Q: What about the IC90 (SK-N-SH (Neuroblastoma)) of the same compound?
A: The IC90 was 3400 µM.

Q: And the IC50 (NBL-W-N (Neuroblastoma))?
A: Its IC50 is 489 µM.

Q: And the IC90 (NBL-W-N (Neuroblastoma))?
A: The IC90 was 3070 µM.

Q: And the IC50 [6]?
A: The IC50 was 1500 µM.

Q: What about the IC90 [6] of the same compound?
A: The IC90 was 9470 µM.

Q: What about the IC50 (LA1-5S (Neuroblastoma)) of the same compound?
A: Its IC50 is 1630 µM.

Q: And the IC90 (LA1-5S (Neuroblastoma))?
A: Its IC90 is 2680 µM.

Q: What about the IC50 (IMR-32 (Neuroblastoma)) of the same compound?
A: The IC50 was 881 µM.

Q: And the IC90 (IMR-32 (Neuroblastoma))?
A: The IC90 was 3570 µM.

Q: And the IC50 (PC3 (Prostate Carcinoma))?
A: Its IC50 is 226 µM.

Q: What about the “interaction with ganciclovir (GC) in inhibiting proliferation” value [7] of the same compound?
A: Its value is “interact synergistically with GC”.

Q: What about the “% Cells Expressing WAF” value (MCF-7 cells (WAF)) of the same compound?
A: The value was 23%.

Q: And the IC50 (HT-29 cells)?
A: The IC50 was > 4000 µM.

Q: What about the IC90 (HT-29 cells) of the same compound?
A: The IC90 was > 4000 µM.

Q: What about the IC50 (CFPAC cells) of the same compound?
A: Its IC50 is > 4000 µM.

Q: What about the IC90 (CFPAC cells) of the same compound?
A: Its IC90 is > 4000 µM.

Q: What about the IC50 (HL-60 cells) of the same compound?
A: Its IC50 is 1640 µM.

Q: And the IC90 (HL-60 cells)?
A: The IC90 was 3460 µM.

Q: What about the IC50 (MCF7 cells) of the same compound?
A: The IC50 was > 4000 µM.

Q: What about the IC90 (MCF7 cells) of the same compound?
A: Its IC90 is > 4000 µM.

Q: And the IC90 [8]?
A: Its IC90 is 2120 µM.

Q: And the “inhibition of cell proliferation, dose dependence” value [9]?
A: The value was “inhibit cell proliferation in a dose-dependent manner”.

Q: And the “HbF Synthesis in K562 Cells” value (K562 cells (HbF) [10]; 0.01 mM)?
A: Its value is 0.96 µg/mL.

Q: And the “HbF Synthesis in K562 Cells” value (K562 cells (HbF) [10]; 0.05 mM)?
A: Its value is 0.95 µg/mL.

Q: And the “HbF Synthesis in K562 Cells” value (K562 cells (HbF) [10]; 0.10 mM)?
A: Its value is 1.8 µg/mL.

Q: And the “HbF Synthesis in K562 Cells” value (K562 cells (HbF) [10]; 0.50 mM)?
A: Its value is 3.69 µg/mL.

Q: What about the clinical efficacy [11] of the same compound?
A: Its clinical efficacy is “moderate efficacy”.
